target: USP14 (Homo sapiens (Human), UniProt P54578); assay: Usp14 inhibition assay (Example 57B, B-series compounds); type: biochemical; conditions: IC50 class; average value from a minimum of two experimental determinations
From the text: Example 57B: Usp14 Inhibition Assay
The IC50 values in the Table below represent the average value from a minimum of two experimental determinations.

Chain of USP14 (P54578 whole entry, looked up): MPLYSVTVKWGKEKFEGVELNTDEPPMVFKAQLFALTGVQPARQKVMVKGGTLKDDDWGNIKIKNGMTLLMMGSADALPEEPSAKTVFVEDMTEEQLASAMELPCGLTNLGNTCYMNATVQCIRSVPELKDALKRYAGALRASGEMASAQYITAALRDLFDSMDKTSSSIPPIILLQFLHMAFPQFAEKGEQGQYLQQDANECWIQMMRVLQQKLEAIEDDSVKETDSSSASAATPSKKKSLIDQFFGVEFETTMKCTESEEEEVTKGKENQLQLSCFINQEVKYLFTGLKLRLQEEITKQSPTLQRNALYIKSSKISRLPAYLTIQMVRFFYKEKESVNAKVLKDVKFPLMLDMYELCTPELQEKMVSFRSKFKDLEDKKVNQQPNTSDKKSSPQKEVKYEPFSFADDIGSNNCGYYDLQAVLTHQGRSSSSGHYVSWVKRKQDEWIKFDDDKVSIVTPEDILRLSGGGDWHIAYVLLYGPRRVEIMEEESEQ

SMILES | IC50
Cc1c(C(=O)CN2C3CCC2[C@@H](O)C3)cc(C#N)n1-c1ccc(C#N)cc1 (mixture of isomers) [Example 47B, (±)-1-(4-Cyanophenyl)-4-(2-((2R)-2-hydroxy-7-azabicyclo[2.2.1]heptan-7-yl)acetyl)-5-methyl-1H-pyrrole-2-carbonitrile] | < 50 nM
Cc1c(F)c(C(=O)CN2[C@@H]3CC[C@H]2[C@H](C)C3)c(C)n1-c1ccc(C#N)cc1 (racemic) [Example 121B, (±)-4-(3-Fluoro-2,5-dimethyl-4-(2-((1S,2R,4R)-2-methyl-7-azabicyclo[2.2.1]heptan-7-yl)acetyl)-1H-pyrrol-1-yl)benzonitrile] | 50 to 500 nM
Cc1c(C(=O)CN2C3CCC2C(O)C3)cc([C@@H]2C[C@H]2C)n1-c1ccc(C#N)cc1 (mixture of isomers) [Example 142B, (±)-4-(3-(2-((1S,2R,4R)-2-Hydroxy-7-azabicyclo[2.2.1]heptan-7-yl)acetyl)-2-methyl-5-(2-methylcyclopropyl)-1H-pyrrol-1-yl)benzonitrile] | 50 to 500 nM
Cc1cc(C(=O)CN2[C@@H]3CC[C@H]2[C@](O)(C(F)(F)F)C3)c(C)n1-c1ccc(C#N)cc1 (racemic) [Example 73B, (±)-4-(3-(2-((1R,2R,4S)-2-Hydroxy-2-(trifluoromethyl)-7-azabicyclo[2.2.1]heptan-7-yl)acetyl)-2,5-dimethyl-1H-pyrrol-1-yl)benzonitrile] | > 500 nM
Cc1c(C(=O)CN2C3CCC2CC3)cc(/C=C/CCS(C)(=O)=O)n1-c1ccc(C#N)cc1 [Example 35B, (E)-4-(3-(2-(7-Azabicyclo[2.2.1]heptan-7-yl)acetyl)-2-methyl-5-(4-(methylsulfonyl)but-1-en-1-yl)-1H-pyrrol-1-yl)benzonitrile] | < 50 nM
Cc1cc(C(=O)CN2C3CCCC2CC(O)C3)c(C)n1-c1ccc(C#N)cc1 [Example 86B, 4-(3-(2-((1R,3r,5S)-3-Hydroxy-9-azabicyclo[3.3.1]nonan-9-yl)acetyl)-2,5-dimethyl-1H-pyrrol-1-yl)benzonitrile] | 50 to 500 nM
Cc1cc(C(=O)CN2C3CCC2CC3)c(C)n1-c1ccc(C#N)cc1 [Example 63B, 4-(3-(2-(7-Azabicyclo[2.2.1]heptan-7-yl)acetyl)-2,5-dimethyl-1H-pyrrol-1-yl)benzonitrile] | > 500 nM
Cc1c(C(=O)CN2[C@@H]3CC[C@H]2[C@@H](O)C3)cc(CC2CCC2)n1-c1ccc(C#N)cc1 (racemic) [Example 133B, (±)-4-(5-(Cyclobutylmethyl)-3-(2-((1R,2R,4S)-2-hydroxy-7-azabicyclo[2.2.1]heptan-7-yl)acetyl)-2-methyl-1H-pyrrol-1-yl)benzonitrile] | < 50 nM
Cc1c(C(=O)CN2C3CCC2CC3)c(C)n(-c2ccc(C#N)cc2)c1/C=C/CCS(C)(=O)=O [Example 32B, (E)-4-(3-(2-(7-Azabicyclo[2.2.1]heptan-7-yl)acetyl)-2,4-dimethyl-5-(4-(methylsulfonyl)but-1-en-1-yl)-1H-pyrrol-1-yl)benzonitrile] | 50 to 500 nM
Cc1c(F)c(C(=O)CN2C3CCC2[C@@H](O)C3)c(C)n1-c1ccc(C#N)c(F)c1 (mixture of isomers) [Example 120B, (±)-2-Fluoro-4-(3-fluoro-4-(2-((2R)-2-hydroxy-7-azabicyclo[2.2.1]heptan-7-yl)acetyl)-2,5-dimethyl-1H-pyrrol-1-yl)benzonitrile] | < 50 nM
COCCCCc1cc(C(=O)CN2[C@H]3CC[C@@H]2[C@H](O)C3)c(C)n1-c1ccc(C#N)cc1 (stereo in doubt) [Example 13B, (rel)-4-(3-(2-((1S,2S,4R)-2-Hydroxy-7-azabicyclo[2.2.1]heptan-7-yl)acetyl)-5-(4-methoxybutyl)-2-methyl-1H-pyrrol-1-yl)benzonitrile] | < 50 nM
Cc1c(C(=O)CN2[C@@H]3CC[C@H]2[C@@H](O)C3)cc(/C=C/CC(C)(C)C#N)n1-c1ccc(C#N)cc1 (racemic) [Example 15B, (±)-4-(5-((E)-4-Cyano-4-methylpent-1-en-1-yl)-3-(2-((1R,2R,4S)-2-hydroxy-7-azabicyclo[2.2.1]heptan-7-yl)acetyl)-2-methyl-1H-pyrrol-1-yl)benzonitrile] | < 50 nM
Cc1c(C#N)c(C(=O)CN2C3CCC2[C@@H](O)C3)c(C)n1-c1ccc(C#N)cc1 (mixture of isomers) [Example 33B, (±)-1-(4-Cyanophenyl)-4-(2-((2R)-2-hydroxy-7-azabicyclo[2.2.1]heptan-7-yl)acetyl)-2,5-dimethyl-1H-pyrrole-3-carbonitrile] | > 500 nM
Cc1c(C(=O)CN2C3CCC2[C@H](O)C3)cc(C(C)CCS(C)(=O)=O)n1-c1ccc(C#N)cc1 (mixture of isomers) [Example 11B, (±)-4-(3-(2-((2R)-2-Hydroxy-7-azabicyclo[2.2.1]heptan-7-yl)acetyl)-2-methyl-5-(4-(methylsulfonyl)butan-2-yl)-1H-pyrrol-1-yl)benzonitrile] | > 500 nM
Cc1nc(Cc2c(Br)c(C(=O)CN3C4CCC3[C@@H](O)C4)c(C)n2-c2ccc(C#N)cc2)cs1 (mixture of isomers) [Example 129B, (±)-4-(3-Bromo-4-(2-((2R)-2-hydroxy-7-azabicyclo[2.2.1]heptan-7-yl)acetyl)-5-methyl-2-((2-methylthiazol-4-yl)methyl)-1H-pyrrol-1-yl)benzonitrile] | 50 to 500 nM
Cc1c(C(=O)CN2C3CCC2[C@@H](O)C3)cc(C[C@H]2C[C@@H](C#N)C2)n1-c1ccc(C#N)cc1 (mixture of isomers) [Example 4B, (±)-4-(5-4(1s,3S)-3-cyanocyclobutyl)methyl)-3-(2-((1R,2R,4S)-2-hydroxy-7-azabicyclo[2.2.1]heptan-7-yl)acetyl)-2-methyl-1H-pyrrol-1-yl)benzonitrile] | < 50 nM
Cc1c(C(=O)CN2C3CCC2[C@@H](O)C3)cc(Br)n1-c1ccc(C#N)cc1 (mixture of isomers) [Example 119B, (±)-4-(5-Bromo-3-(2-((2R)-2-hydroxy-7-azabicyclo[2.2.1]heptan-7-yl)acetyl)-2-methyl-1H-pyrrol-1-yl)benzonitrile] | 50 to 500 nM
Cc1c(F)c(C(=O)CN2C3CCC2[C@@H](O)C3)c(C)n1-c1ccc(C#N)cc1 (mixture of isomers) [Example 78B, (±)-4-(3-Fluoro-4-(2-((2R)-2-hydroxy-7-azabicyclo[2.2.1]heptan-7-yl)acetyl)-2,5-dimethyl-1H-pyrrol-1-yl)benzonitrile] | 50 to 500 nM
Cc1c(C(=O)CN2[C@@H]3CC[C@H]2[C@@H](C)C3)cc(C#N)n1-c1ccc(C#N)cc1 (racemic) [Example 136B, (±)-1-(4-Cyanophenyl)-5-methyl-4-(2-((1R,2R,4S)-2-methyl-7-azabicyclo[2.2.1]heptan-7-yl)acetyl)-1H-pyrrole-2-carbonitrile] | < 50 nM
Cc1c(C(=O)CN2C3CCC2CC3)c(C)n(-c2ccc(C#N)cc2)c1CCCCS(C)(=O)=O [Example 1B, 4-(3-(2-(7-Azabicyclo[2.2.1]heptan-7-yl)acetyl)-2,4-dimethyl-5-(4-(methylsulfonyl)butyl)-1H-pyrrol-1-yl)benzonitrile] | > 500 nM
Cc1c(C(=O)CN2C3CCC2CC3)cc(CCCCC#N)n1-c1ccc(Cl)cc1 [Example 31B, 5-(4-(2-(7-Azabicyclo[2.2.1]heptan-7-yl)acetyl)-1-(4-chlorophenyl)-5-methyl-1H-pyrrol-2-yl)pentanenitrile] | 50 to 500 nM
Cc1cc(C(=O)CN2[C@@H]3CC[C@H]2[C@H](C)[C@@H]3C)c(C)n1-c1ccc(C#N)cc1 [Example 138B, 4-(3-(2-((1R,2S,3R,4S)-2,3-Dimethyl-7-azabicyclo[2.2.1]heptan-7-yl)acetyl)-2,5-dimethyl-1H-pyrrol-1-yl)benzonitrile] | > 500 nM

Source: patent publication US11560385B2, “Proteasome activity enhancing compounds” (Proteostasis Therapeutics, Inc., priority 2018, dated 2023)
